Results published in patent US20220267390A1, “MPS MODIFIED PEPTIDES AND USE THEREOF” (The Regents of the University of California, priority 2019, published 2022).
Where no end group is shown, it is not given here.

Tests used:
[1] = test system: IPF fibroblast cells; test: cells; type: cell-based, human; conditions: 72 h
Method: FIG. 14: Comparison of MPS-12042 (SEQ ID NO: 45) versus know tyrosine kinase inhibitor (TKLs) on the treatment of IPF fibroblast cells. Both normal and IPF lung fibroblast cells were treated with various drugs. After 72 hours, cells were subjected to MTT assays and IC50 for each drug was determined.
Human primary fibroblast cells were obtained from airway tissues provided from the UC Davis Medical Hospital (Sacramento, Calif.) with consent. The protocol for human tissue procurement and usage were periodically reviewed and approved by the University Human Subject Research Review Committee. Primary fibroblast cell lines, IPF-1 and IPF-2 cells, were established from IPF patients. Cells were obtained from lung biopsies and the diagnosis of IPF was supported by patient history, physical examination, pulmonary function tests, and typical high-resolution chest computed tomography findings of IPF. […] All patients fulfilled the criteria for the diagnosis of IPF as established by the American Thoracic Society and European Respiratory Society. Non-fibrotic primary control adult human lung fibroblast lines, Normal-1 and Normal-2 cells were used. These lines were established from normal lung tissue or histologically normal lung tissue adjacent to carcinoid tumor. The IPF cell line, LL97A, was purchased from the American Type Culture Collection (ATCC) (Manassas, Va.). Lung fibroblast lines were cultured in high-glucose DMEM or RPMI-1640 medium with 10% fetal bovine serum and 1% penicillin-streptomycin at 37° C. in a humidified atmosphere of 5% CO2. Fibroblasts were used between passages 4 and 8. Cells were characterized as fibroblasts as described^26.
Cells were seeded onto 96-well plates at a density of 5-10×10^3 cells per well and cultured for the indicated treatment. Cell proliferation was evaluated using a MTS assay kit (Promega, Madison, Wis.). Twenty microliters of the combined MTS/PMS solution was added into each well, incubated for 3 hours at 37° C., and the absorbance was measured at 490 nm by using an ELISA reader. For Trypan blue test, cells were plated on 12-well plates and treated with the indicated chemotherapeutic agents. After 72 hours, both attached and detached cells were collected and then stained with 0.2% trypan blue (0.1% final concentration), and the number of trypan blue-positive and -negative cells was counted using a haemocytometer under low-power microscopy. For colony-forming assays, 200 cells were seeded in each well of six-well plates. IPF-1 or IPF-2 primary cells were treated with peptides at the indicated concentrations for 10 days. Colonies were stained using 0.001% crystal violet and the number of colonies with a diameter greater than 0.5 mm was counted under an inverted microscope.

[2] = test system: LG704 oncospheres; test: RNA-seq of LG704 oncospheres; type: cell-based, human; conditions: 50 μM
Method: These genes were then analyzed with GSEA to determine which functional pathways were most affected by MARCKS. Right, Heat map of cancer-stemness markers associated with MARCKS activity.
Targeting the MARCKS PSD is associated with inhibition of stem-like cell properties. In light of the importance of the PSD in the functionality of MARCKS protein, Applicant designed a 25-mer MPS peptide to mimic the MARCKS phosphorylation site domain (PSD). […] Applicant's initial studies have shown that elevation of phospho-MARCKS in lung cancer spheres acted in parallel with increased stemness markers, such as CD133, Oct3/4, SOX2 and Nanog (data not included). The oncospheres were derived from high MARCKS-expressing lung cancer cell lines (H1975 and CL1-5) and primary lung cancer cells (LG704 and LC3: pleural effusion cells isolated from patients with advanced stage) in non-adherent serum-free culture conditions as described previously^30-32. Flow cytometry confirmed that ˜80% of LG704 oncosphere cells are CD133-positive, a major lung CSCs marker. […] Through a comparison of transcriptome profiling between PBS- and MPS-treated LG704 oncospheres by RNA-seq, Applicant identified a total of 352 coding genes altered by MARCKS inhibition (FIG. 15, left). […] The sphere-forming ability was assessed by counting the number and size of tumor spheres (oncospheres) under a microscope. […]

[3] = test system: normal human epithelial cells; conditions: earlier work of Applicant (refs 14, 16); cited from earlier work

## KKKKKRFSFKKSFKLSGFSFKKNKK [MPS peptide]
[1]
  IC50: 125 to 178 µM
[2]
  cancer stemness genes (ABCC8, CDH5, PROM1 (CD133), ALDH1L1, FGFR2): decreased
[3]
  cytotoxic effect on normal human epithelial cells: no cytotoxic effect
